Measurements published in patent US5821331A, “Anti-picornaviral agents” (Eli Lilly and Company, priority 1996, dated 1998).
Where a SMILES comes first, the peptide text is derived from it. The star is where a group is joined. Boc = CC(C)(C)OC(=O)*

Tests used:
[1] = tested on: 2C'3ABCD portion of the HRV polyprotein precursor; experiment: In Vitro Translation of HRV RNA (rabbit reticulocyte lysate, autoradiography); type: biochemical, human rhinovirus; settings: for Processing of translated viral polyprotein (autoradiography): inhibitor included in cell-free translation assay
Text: In a cell-free translation system, when no inhibitor was present, RNA corresponding to the 2C'3ABCD portion of the HRV polypeptide precursor was translated into the various individual proteins of the virus. […]
Complementary DNA derived from the HRV genone and representing the 2C'3ABCD portion of the HRV polyprotein precursor (Lee W, Monroe S S, Reuckert R R (1993) J. Virol 67:211-2122) was inserted into the commercially available pCITE vector (Novagen, 565 Science Dr., Madison, Wis.). The vector is supplied with the Novagen Red Nova® Lysate translation assay kit, which provides a lysate of New Zealand White rabbit reticulocytes along with other reagents, that allows for efficient cell-free synthesis of proteins from exogenous RNA templates.
The pCITE 2C'3ABCD-containing plasmid was used to transform the JM101 cell line (Stratagene, La Jolla, Calif.) which was then grown under standardard conditions ([…], 37° C.) in 2× YT broth with ampicillin. The plasmid was then isolated by standard CsCl banding procedures.
The DNA was linearized by treatign the plasmid with 2 unitsMlu 1 restriction enzyme per μg DNA for 3 hours at 37° C., followed by proteinase K (50 μg/mL) treatment for 30 minutes at 37° C. The mixture was extracted twice with phenol/chloroform/isoamyl alcohol (1:1:1) followed by two extractions with chloroform/isoamyl alcohol (1:1). A 0.1 volume 3M sodium acetate (NaOAc), pH 5.2 and two volumes of 100% ethanol were added before placing at -80° C. for 60 minutes. The supernatant was decanted and the pellet was rinsed with 70% ethanol, dried under vacuum, and then resuspended in 25 μL Tris-EDTA buffer (10 mM Tris, 1 mM EDTA; pH 7.6). […]
The compounds of Formula I were assayed according to the Red Nova protocol for their ability to inhibit translation of the rhinoviral RNA by the reticulocyte lysate. ^3 H-Leucine (5 mCi/mL) was included in the assay mixture so that translation products could be identified by autoradiography when the samples were analyzed by SDS polyacrylamide gel electrophoresis. […]

HRV = experiment: Whole Cell Culture Assay of Anti-HRV Activity (Hela cells, XTT); type: cell-based, human rhinovirus; settings: concentration not given
Experimental: A third measure of antiviral activity was performed by determining the effects of selected 3C protease inhibitors of Formula I on HRV infection in cultures of Hela cells.
Commercially available Hela cells are susceptible to HRV infection. The virus enters the cells where it readily replicates and when infection levels become high enough, the Hela cells die. The effect of HRV inhibitors can be measured in Hela cultures by first exposing the cells to HRV and shortly thereafter (before viral infection becomes critical) adding potential inhibitors. Compounds which inhibit 3C protease activity serve to protect the cells from the cytopathic effect of the virus. Comparison of viability in cultures receiving serial dilutions of inhibitor to cultures not receiving any inhibitor allows quantitation of the antiviral effect. Any toxic effect of the inhibitor can also be measured by comparing viability of treated cultures with those cultures which are not infected with the virus.
Viability determinations can be readily made by direct counts of viable cells or by assays representative of viability such as measurement of mitochondrial enzyme activity.
Hela cells were dispersed in a 96-well tissue culture plate at 20,000 cells per well with minimum essential medium containing Earl's balanced salt solution, 1% fetal bovine serum, penicillin (150 units/mL) and streptomycin (150 μg/mL). […]

| Compound | Processing of translated viral polyprotein (autoradiography) [1] | Translation Assay (toxic) ([1]; at the dose tested (dose not given)) | Whole Cell Antiviral Testing (toxic) (HRV) |
| --- | --- | --- | --- |
| CC(C)C[C@H](NC(=O)[C@@H](NC(=O)OC(C)(C)C)C(C)C)C(=O)N[C@@H](Cc1ccccc1)C(=O)N[C@H](C=O)CCC(N)=O [Example 5, N-(t-butoxycarbonyl-L-valinyl-L-leucinyl-L-phenylalanyl)-L-gluatamine aldehyde] (Boc-VLFQ-aldehyde) | single unprocessed band |  |  |
| CC(=O)N[C@@H](CC(C)C)C(=O)N[C@@H](Cc1ccccc1)C(=O)N[C@H](C=O)CCC(N)=O [Example 6, N-(Acetyl-L-leucinyl-L-phenylalanyl)-L-glutamine aldehyde] (Ac-Leu-Phe-Gln-aldehyde) | single unprocessed band |  |  |
| CC(C)C[C@H](N)C(=O)N[C@@H](Cc1ccccc1)C(=O)N[C@H](C=O)CCC(N)=O [Example 7, N-(L-leucinyl-L-phenylalanyl)-L-glutamine aldehyde] (H-Leu-Phe-Gln-aldehyde) |  | toxic | toxic |
